Measurements: ChEMBL document CHEMBL1146469, “Tasnemoxides A-C, new cytotoxic cyclic norsesterterpene peroxides from the Red Sea sponge Diacarnus erythraenus” (J Nat Prod, 2004)

What was measured:
Type in all cases: functional, cell-based
P388 = test: Cytotoxicity against mouse P388 cells by dilution assay
HT-29 = test: Cytotoxicity against human HT-29 cells by dilution assay
A549 = test: Cytotoxicity against human A549 cells by dilution assay

Measured: IC50

CC1=C(CCC(C)(O)/C=C/C[C@@]2(C)CC[C@H]([C@H](C)C(=O)O)OO2)C(C)(C)CCC1 (some centres undefined) [TASNEMOXIDE A]
> 1 µg/mL: all assays above

C=C(CCC1=C(C)CCCC1(C)C)C(O)CC[C@@]1(C)CC[C@H]([C@H](C)C(=O)O)OO1 (some centres undefined) [TASNEMOXIDE B]
> 1 µg/mL: all assays above

C=C(CCC[C@@]1(C)CC[C@H]([C@H](C)C(=O)OC)OO1)CCC1(O)C(=C)CCCC1(C)C (some centres undefined) [TASNEMOXIDE C]
> 1 µg/mL: all assays above
